The source of these data is patent US11466013B2 (Betta Pharmaceuticals Co., LTD, priority 2018, dated 2022).

The target of test [1] is ERK1 (Homo sapiens, UniProt P27361). As to the kind of experiment: Kinase assay (Caliper, FAM-labeled peptide), ERK1. In kind it is biochemical. The procedure:
(§1) The compound was diluted to the desired concentration with DMSO, transferred 100 μL to a 96-well plate, and performed a gradient dilution 10 μL of compound from each well was taken and mixed with 90 μL of kinase buffer, and then transferred 5 μL from each well to a 384-well plate. Kinase and FAM-labeled peptide and ATP were added to 1× kinase alkaline buffer to obtain 2.5× enzyme solution and 2.5× peptide solution, 10 μL of 2.5× enzyme solution was added to the 384-well assay plate. After incubating for 10 minutes at room temperature, 10 μL of 2.5× peptide solution was added to the 384-well plate. After reacting for a specific time at […], 25 μL of termination buffer was added to stop reaction. After reading the collected data on Caliper, the data was converted to inhibition percentage. Inhibition percentage=(maximum value−conversion value)/(maximum value−minimum value)*100.
(§2) The “maximum” is the DMSO control, the “minimum” indicates the low control.
(§3) Graphpad Prism software was used to perform curve fitting and obtain IC50 value.

The target of test [2] is ERK2 (Homo sapiens, UniProt P28482). As to the kind of experiment: Kinase assay (Caliper, FAM-labeled peptide), ERK2. In kind it is biochemical. Here is the method: as §1, §2, §3
ERK2, sequence (P28482 whole entry): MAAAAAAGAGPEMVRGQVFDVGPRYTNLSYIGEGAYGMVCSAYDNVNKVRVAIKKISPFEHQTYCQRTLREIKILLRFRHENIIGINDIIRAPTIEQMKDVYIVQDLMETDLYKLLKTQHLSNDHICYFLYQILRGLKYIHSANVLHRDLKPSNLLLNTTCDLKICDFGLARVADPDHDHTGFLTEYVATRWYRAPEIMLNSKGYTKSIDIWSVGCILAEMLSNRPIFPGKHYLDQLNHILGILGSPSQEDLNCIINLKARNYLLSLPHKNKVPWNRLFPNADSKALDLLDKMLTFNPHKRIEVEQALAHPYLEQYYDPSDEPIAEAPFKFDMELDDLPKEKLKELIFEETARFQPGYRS

ERK1, sequence (P27361 whole entry): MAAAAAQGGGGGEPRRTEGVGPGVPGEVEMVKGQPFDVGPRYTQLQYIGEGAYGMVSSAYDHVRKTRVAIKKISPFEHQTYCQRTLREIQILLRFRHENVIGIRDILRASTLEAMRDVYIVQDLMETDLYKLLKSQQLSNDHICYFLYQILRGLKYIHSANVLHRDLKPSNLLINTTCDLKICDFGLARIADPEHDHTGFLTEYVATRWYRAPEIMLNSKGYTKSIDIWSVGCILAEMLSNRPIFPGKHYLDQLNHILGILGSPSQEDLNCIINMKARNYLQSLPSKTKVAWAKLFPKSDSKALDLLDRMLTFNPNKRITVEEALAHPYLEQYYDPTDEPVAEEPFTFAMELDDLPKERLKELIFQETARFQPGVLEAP

On to `COC[C@H]1Cn2cc(-c3cc(Nc4c(C)noc4C)ncc3Cl)cc2C(=O)N1Cc1cc(F)ccc1CO` [Example 81, (R)-7-(5-chloro-2-((3,5-dimethyl-isoxazole-4-yl)amino)pyridine-4-yl)-2-(5-fluoro-2-(hydroxymethyl)benzyl)-3-(methoxymethyl)-3,4-dihydropyrrolo[1,2-a] pyrazine-1(2H)-one], for which the IC50 in test [1] stood at 1.1 nM; in test [2], 1.5 nM.
Take `COCC1Cn2cc(-c3cc(NC4CCN(C(C)=O)CC4)ncc3Cl)cc2C(=O)N1Cc1cc(F)ccc1CO` (centres unmarked) [Example 110, 7-(2-((1-acetylpiperidin-4-yl)amino)-5-chloropyridine-4-yl)-2-(5-fluoro-2-(hydroxymethyl)benzyl)-3-(methoxymethyl)-3,4-dihydropyrrolo[1,2-a] pyrazine-1(2H)-one]: the values for the IC50 in test [1] and in test [2] were 0.6 nM and 0.7 nM, respectively.
In the same order, the values of `COC[C@H]1Cn2cc(-c3cc(NC4CCC(OC)CC4)ncc3Cl)cc2C(=O)N1Cc1cc(F)ccc1CO` (stereo partly drawn) [Example 111, (R)-7-(5-chloro-2-((4-methoxycyclohexyl)amino)pyridine-4-yl)-2-(5-fluoro-2-(hydroxymethyl)benzyl)-3-(methoxymethyl)-3,4-dihydropyrrolo[1,2-a] pyrazine-1(2H)-one] are 0.9 nM and 0.9 nM.
On to `COC[C@H]1Cn2cc(-c3cc(NC(C)=O)ncc3Cl)cc2C(=O)N1Cc1cc(F)ccc1CO` [Example 112, (R)-N-(5-chloro-4-(2-(5-fluoro-2-(hydroxymethyl)benzyl)-3-(methoxymethyl)-1-oxo-1,2,3,4-tetrahydropyrrolo [1,2-a]pyrazin-7-yl)pyridine-2-yl) acetamide], for which the results for the half-inhibitory concentration (IC50) in test [1] and in test [2] were 0.4 nM and 1 nM, respectively.
On the same counts, the results for `COC[C@H]1Cn2cc(-c3cc(Nc4ccn(CC(F)F)n4)ncc3Cl)cc2C(=O)N1Cc1cc(F)ccc1CO` [Example 114, (R)-7-(5-chloro-2-((1-(2,2-difluoroethyl)-1h-pyrazole-3-yl)amino)pyridine-4-yl)-2-(5-fluoro-2-(hydroxymethyl)benzyl)-3-(methoxymethyl)-3,4-dihydropyrrolo[1,2-a] pyrazine-1(2H)-one] are 1.3 nM and 1.3 nM.
On the same counts, the results for `COC[C@H]1Cn2cc(-c3cc(NC(=O)c4csc(C)n4)ncc3Cl)cc2C(=O)N1Cc1cc(F)ccc1CO` [Example 117, (R)-N-(5-chloro-4-(2-(5-fluoro-2-(hydroxymethyl)benzyl)-3-(methoxymethyl)-1-oxo-1,2,3,4-tetrahydropyrrolo [1,2-a]pyrazin-7-yl)pyridine-2-yl)-2-methylthiazol-4-formamide] are 1.2 nM and 1 nM.
In the same order, the values of `Cc1cnc(NC(C)CO)nc1-c1cc2n(c1)CCN(Cc1cc(F)ccc1CO)C2=O` (centres unmarked) [Example 121, 2-(5-fluoro-2-(hydroxymethyl)benzyl)-7-(2-((1-hydroxypropyl-2-yl)amino)-5-methylpyrimidin-4-yl)-3,4-dihydropyrrolo[1,2-a] pyrazine-1(2H)-one] are 0.2 nM and 0.2 nM.
Take `Cc1cnc(NC2COC2)nc1-c1c[nH]c(C(=O)NCc2cc(F)ccc2CO)c1` [Example 122, N-(5-fluoro-2-(hydroxymethyl)benzyl)-4-(5-methyl-2-(oxacyclobutane-3-ylamino)pyrimidin-4-yl)-1h-pyrrole-2-formamide]: the IC50 came out at 0.65 nM in test [1] and 0.71 nM in test [2].
In the same order, the values of `Cc1cnc(NC(C)C)nc1-c1cc2n(c1)CCN(Cc1cc(F)ccc1CO)C2=O` [Example 123, 2-(5-fluoro-2-(hydroxymethyl)benzyl)-7-(2-(isopropylamino)-5-methylpyrimidin-4-yl)-3,4-dihydropyrrolo[1,2-a] pyrazine-1(2H)-one] are 0.53 nM and 0.44 nM.
On the same counts, the results for `O=C1c2cc(-c3cc(NCC(F)(F)F)ncc3Cl)cn2CCN1Cc1cc(F)ccc1CO` [Example 124, 7-(5-chloro-2-((2,2,2-trifluoroethyl)amino)pyridine-4-yl)-2-(5-fluoro-2-(hydroxymethyl)benzyl)-3,4-dihydropyrrolo[1,2-a] pyrazine-1(2H)-one] are 0.79 nM and 0.98 nM.
On the same counts, the results for `COC[C@H]1Cn2cc(-c3ccnc(NC(C)C)n3)cc2C(=O)N1Cc1cc(F)ccc1CO` [Example 127, (R)-2-(5-fluoro-2-(hydroxymethyl)benzyl)-7-(2-(isopropylamino)pyrimidin-4-yl)-3-(methoxymethyl)-3.4-dihydropyrrolo[1,2-a] pyrazine-1(2H)-one] are 1.6 nM and 0.35 nM.
Take `O=C1c2cc(-c3cc(NC4CC(F)(F)C4)ncc3Cl)cn2CCN1Cc1cc(F)ccc1CO` [Example 128, 7-(5-chloro-2-((3,3-difluorocyclobutyl)amino)pyridine-4-yl)-2-(5-fluoro-2 (hydroxymethyl)benzyl)-3,4-dihydropyrrolo[1,2-a] pyrazine-1(2H)-one]: the 50% inhibitory concentration (IC50) in test [1] was determined as 0.65 nM; in test [2] it was 0.89 nM.
Regarding `CCNc1ncc(Cl)c(-c2cc3n(c2)C[C@H](COC)N(Cc2cc(F)ccc2CO)C3=O)n1` [Example 131, (R)-7-(5-chloro-2-(ethylamino)pyrimidin-4-yl)-2-(5-fluoro-2-(hydroxymethyl)benzyl)-3-(methoxymethyl)-3,4-dihydropyrrolo[1,2-a] pyrazine-1(2H)-one], the IC50 stood at 0.83 nM in test [1] and 1.4 nM in test [2].
In the same order, the values of `CCc1ccccc1Nc1ncc(C)c(-c2cc3n(c2)CCN(Cc2cc(F)ccc2CO)C3=O)n1` [Example 132, 7-(2-((2-Ethylphenyl)amino)-5-methylpyrimidin-4-yl)-2-(5-fluoro-2-(hydroxymethyl)benzyl)-3,4-dihydropyrrolo[1,2-a] pyrazine-1(2H)-one] are 0.8 nM and 0.9 nM.
In the case of `Cc1cnc(Nc2cccc3c2OCO3)nc1-c1cc2n(c1)CCN(Cc1cc(F)ccc1CO)C2=O` [Example 133, 7-(2-(benzo[D][1,3]dioxocyclopentene-4-ylamino)-5-methylpyrimidin-4-yl)-2-(5-fluoro-2-(hydroxymethyl)benzyl)-3,4-dihydropyrrolo[1,2-a] pyrazine-1(2H)-one], the IC50 in test [1] and in test [2] was 0.7 nM each time.
In the case of `Cc1cnc(Nc2ccc3c(cnn3C)c2)nc1-c1cc2n(c1)CCN(Cc1cc(F)ccc1CO)C2=O` [Example 134, 2-(5-fluoro-2-(hydroxymethyl)benzyl)-7-(5-methyl-2-((1-methyl-1h-indazole-5-yl)amino)pyrimidin-4-yl)-3,4-dihydropyrrolo[1,2-a] pyrazine-1(2H)-one], the IC50 in test [1] and in test [2] was 0.5 nM in each case.
For the compound `Cc1cnc(Nc2cccc3c2OCCO3)nc1-c1cc2n(c1)CCN(Cc1cc(F)ccc1CO)C2=O` [Example 135, 7-(2-((2,3-dihydrobenzo[b][1,4]dioxane-5-yl)amino)-5-methylpyrimidin-4-yl)-2-(5-fluoro-2-(hydroxymethyl)benzyl)-3,4-dihydropyrrolo[1,2-a] pyrazine-1(2H)-one], the values for the IC50 in test [1] and in test [2] were 1.6 nM and 0.7 nM, respectively.
In the same order, the values of `Cc1cnc(Nc2cccc(C)c2C)nc1-c1cc2n(c1)CCN(Cc1cc(F)ccc1CO)C2=O` [Example 136, 7-(2-((2,3-dimethylphenyl)amino)-5-methylpyrimidin-4-yl)-2-(5-fluoro-2-(hydroxymethyl)benzyl)-3,4-dihydropyrrolo[1,2-a] pyrazine-1(2H)-one] are 0.9 nM and 0.4 nM.
On the same counts, the results for `Cc1cnc(Nc2ccccc2)nc1-c1cc2n(c1)CCN(Cc1cc(F)ccc1CO)C2=O` [Example 137, 2-(5-fluoro-2-(hydroxymethyl)benzyl)-7-(5-methyl-2-(phenylamino)pyrimidin-4-yl)-3,4-dihydropyrrolo[1,2-a] pyrazine-1(2H)-one] are 2.7 nM and 0.6 nM.
In the same order, the values of `Cc1cnc(Nc2cccc3cnn(C)c23)nc1-c1cc2n(c1)CCN(Cc1cc(F)ccc1CO)C2=O` [Example 140, 2-(5-fluoro-2-(hydroxymethyl)benzyl)-7-(5-methyl-2-((1-methyl-1h-indazole-7-yl)amino)pyrimidin-4-yl)-3,4-dihydropylrolo[1,2-a] pyrazine-1(2H)-one] are 1.3 nM and 1.1 nM.
Consider `Cc1cnc(Nc2cccc3c2cnn3C)nc1-c1cc2n(c1)CCN(Cc1cc(F)ccc1CO)C2=O` [Example 141, 2-(5-fluoro-2-(hydroxymethyl)benzyl)-7-(5-methyl-2-((1-methyl-1h-indazole-4-yl)amino)pyrimidin-4-yl)-3,4-dihydropyrrolo[1,2-a] pyrazine-1(2H)-one], for which the IC50 is 0.93 nM in test [1] and 0.87 nM in test [2].
Regarding `Cc1cnc(Nc2ccc(OC(C)C)nc2)nc1-c1cc2n(c1)CCN(Cc1cc(F)ccc1CO)C2=O` [Example 159, 2-(5-fluoro-2-(hydroxymethyl)benzyl)-7-(2-((6-isopropoxypyridin-3-yl)amino) 5-methylpyrimidin-4-yl)-3,4-dihydropyrrolo[1,2-a] pyrazine-1(2H)-one], the figures for the IC50 in test [1] and in test [2] were 1.9 nM and 1.7 nM, respectively.

Usually IC50 stands for the concentration that inhibits the measured activity by half. Low readings indicate higher potency, high ones lower potency.
